Read-outs that look alike come from different tables or passages of the source.

The text below walks through data of patent US8785147B2, “L-threonine analysis method and L-threonine dehydrogenase” (Toyama Prefecture, priority 2010, dated 2014).

Assay [1] concerns TDH derived from Cupriavidus necator NBRC 102504 (SEQ ID NO: 1) (CnTDH). As to the kind of experiment: Substrate specificity of TDH, standard assay. The format is biochemical. The conditions noted are these: for Activity of the present enzyme on the substrate (in words): substrate 10 mM. The protocol: L-threonine oxidation activity was determined by measuring coenzyme NAD^+ reduction at 30° C. and 340 nm. The reaction composition consisted of a total volume of 1 mL and contained L-threonine (final concentration 10 mM), NAD^+ (final concentration 2.5 mM), and glycine-KCl—KOH buffer (100 mM, pH 10.0). The measurement of activity began with the addition of the enzyme. One unit (U) of enzymatic activity was defined as the amount of enzyme producing 1 μmol of NADH per minute under standard conditions.
TDH was examined using substrates in the form of various L-amino acids, amino alcohols, and alcohols. […]

The test system of assay [2] is CsTDH: TDH from Clostridium sticklandii. The following applies: substrate specificity; L-threonine = 100; cited from earlier work.
In assay [3] the target is EcTDH: TDH from Escherichia coli K-12 (Escherichia coli, UniProt P07913). The following applies: cited from earlier work.
The subject of assay [4] is CyTDH: TDH from Cytophaga sp. KUC-1. The following applies: substrate specificity; L-threonine = 100; cited from earlier work.
Assay [5] has as its target PfTDH: TDH from Pyrococcus furiosus (Pyrococcus furiosus, UniProt Q8U259). The following applies: cited from earlier work.
Assay [6] relates to GdTDH: TDH from chicken liver (Gallus domesticus). The following applies: substrate specificity; L-threonine = 100; cited from earlier work.
A further assay deals with TkTDH (Thermococcus kodakarensis, UniProt Q5JI69). The following applies: substrate specificity; L-threonine = 100; cited from earlier work.
Assay [7] deals with StTDH: TDH from Streptomyces sp. 139. The conditions noted are these: substrate specificity; L-threonine = 100; cited from earlier work.
Assay [8] has as its system AgTDH: TDH from Arthrobacter globiformis. The conditions noted are these: substrate specificity; L-threonine = 100; cited from earlier work.
Setting [9] is: substrate concentration 10 mM, standard assay conditions, L-threonine = 100.
The mark [10] stands for this setting: substrate specificity, L-threonine = 100.

EcTDH: TDH from Escherichia coli K-12, sequence (P07913 whole entry): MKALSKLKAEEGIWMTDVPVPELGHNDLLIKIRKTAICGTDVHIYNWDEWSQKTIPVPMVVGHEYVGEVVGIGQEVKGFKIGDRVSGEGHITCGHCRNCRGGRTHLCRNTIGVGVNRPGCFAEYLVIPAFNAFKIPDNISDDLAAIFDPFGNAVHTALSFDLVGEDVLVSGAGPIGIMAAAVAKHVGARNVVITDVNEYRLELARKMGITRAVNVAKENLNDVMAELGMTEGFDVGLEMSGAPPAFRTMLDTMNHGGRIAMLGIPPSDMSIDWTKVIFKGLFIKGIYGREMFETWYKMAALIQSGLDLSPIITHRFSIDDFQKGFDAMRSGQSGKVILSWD
PfTDH: TDH from Pyrococcus furiosus, sequence (Q8U259 whole entry): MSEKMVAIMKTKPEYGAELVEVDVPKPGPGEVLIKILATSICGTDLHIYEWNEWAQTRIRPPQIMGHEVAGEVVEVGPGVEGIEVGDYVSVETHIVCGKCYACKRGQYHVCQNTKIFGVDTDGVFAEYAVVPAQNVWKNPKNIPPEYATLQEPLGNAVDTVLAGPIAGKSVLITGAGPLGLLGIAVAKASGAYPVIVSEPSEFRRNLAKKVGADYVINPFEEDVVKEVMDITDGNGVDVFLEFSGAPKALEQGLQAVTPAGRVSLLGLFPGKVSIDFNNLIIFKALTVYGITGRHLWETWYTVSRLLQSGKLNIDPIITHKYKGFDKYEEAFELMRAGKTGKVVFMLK
TkTDH, sequence (Q5JI69 whole entry): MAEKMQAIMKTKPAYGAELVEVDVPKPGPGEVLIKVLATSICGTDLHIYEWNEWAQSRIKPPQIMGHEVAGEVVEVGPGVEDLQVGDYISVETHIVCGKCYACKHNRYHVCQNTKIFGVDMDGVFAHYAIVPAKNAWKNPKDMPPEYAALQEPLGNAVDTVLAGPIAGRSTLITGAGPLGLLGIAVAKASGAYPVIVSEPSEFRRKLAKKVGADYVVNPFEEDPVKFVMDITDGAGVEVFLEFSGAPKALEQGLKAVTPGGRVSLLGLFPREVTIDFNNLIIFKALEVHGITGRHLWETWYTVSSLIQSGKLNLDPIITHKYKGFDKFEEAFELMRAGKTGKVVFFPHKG

With `COC(=O)[C@@H](N)[C@@H](C)O` [L-threonine methyl ester], the “Relative activity (%) CnTDH” value in [1] (setting [9]) is reported as 0%. In [2], the “Relative activity (%) CsTDH” value is on record as 0%. Further, the “Relative activity (%) EcTDH” value in [3] (setting [10]) is 27%.

As to `C[C@H](O)[C@@H](N)C(=O)O` [D-threonine], in [1] (standard assay conditions), the “Activity of the present enzyme on the substrate (in words)” value is reported as “no activity was observed”. The “Relative activity (%) CnTDH” value in assay [1] (setting [9]) turned out to be 0%. In assay [4], the “Relative activity (%) CyTDH” value is given as 0%. In addition, in [2], the “Relative activity (%) CsTDH” value is 0%. The “Relative activity (%) EcTDH” value in assay [3] (setting [10]) is given as 63.7%. In assay [5] (setting [10]), the “Relative activity (%) PfTDH” value is 5%. Besides, the “Relative activity (%) GdTDH” value in [6] is 0%.

With `N[C@@H](CO)C(=O)O` [L-serine], the “Relative activity (%) CnTDH” value in [1] (substrate 100 mM) and in [1] (setting [9]) was 0% throughout. In addition, the “Relative activity (%) CyTDH” value in assay [4] is 0%. In assay [2], the “Relative activity (%) CsTDH” value is listed as 0%. In [3] (setting [10]), the “Relative activity (%) EcTDH” value is on record as 4.0%. The “Relative activity (%) PfTDH” value in assay [5] (setting [10]) was 15%. In addition, on TkTDH, the “Relative activity (%) TkTDH” value is given as 13%. Further, the “Relative activity (%) GdTDH” value in assay [6] is reported as 0%.

In the case of `C[C@H](O)[C@H](N)C(=O)O` (racemic) [DL-allothreonine], the “Relative activity (%) CnTDH” value in assay [1] (setting [9]) is 0%. Moreover, the “Relative activity (%) CsTDH” value in [2] is reported as 0%. Further, the “Relative activity (%) EcTDH” value in assay [3] (setting [10]) is reported as 95.0%. Moreover, the “Relative activity (%) GdTDH” value in assay [6] was 0%.

`CCC(O)C(N)C(=O)O` (racemic) [DL-α-amino-β-hydroxyvaleric acid]: in assay [4], the “Relative activity (%) CyTDH” value is 31%. Besides, the “Relative activity (%) CsTDH” value in [2] is 20%. Moreover, the “Relative activity (%) EcTDH” value in assay [3] (setting [10]) was 71%. In addition, the “Relative activity (%) GdTDH” value in [6] is 0%.

Turning to `C[C@@H](O)[C@H](N)C(N)=O` [L-threonine amide], the “Relative activity (%) CnTDH” value in assay [1] (setting [9]) was 0%. Also, in assay [2], the “Relative activity (%) CsTDH” value is 0%. Further, in [3], the “Relative activity (%) EcTDH” value is given as 98%.

`NC(C(=O)O)C(O)c1ccccc1` (racemic) [DL-threo-3-phenylserine]: in assay [1] (setting [9]), the “Relative activity (%) CnTDH” value worked out at 0%. Moreover, in assay [4], the “Relative activity (%) CyTDH” value was 0%. Also, the “Relative activity (%) CsTDH” value in assay [2] is reported as 0%. The “Relative activity (%) EcTDH” value in assay [3] (setting [10]) is 3%.

On to `C[C@@H](O)[C@H](N)C(=O)O` [L-threonine hydroxide], for which the “Relative activity (%) CnTDH” value in assay [1] (setting [9]) is on record as 0%. For the same molecule, the “Relative activity (%) CsTDH” value in assay [2] is reported as 0%. Besides, the “Relative activity (%) EcTDH” value in [3] (setting [10]) is given as 25%.

Turning to `CSCC[C@H](N)C(=O)O` [L-methionine], the “Relative activity (%) CnTDH” value in assay [1] (setting [9]) came out at 0%. For the same molecule, the “Relative activity (%) CyTDH” value in assay [4] is given as 0%. Further, in [2], the “Relative activity (%) CsTDH” value is given as 0%. In assay [5], the “Relative activity (%) PfTDH” value is recorded as 0%.

`C[C@@H](O)[C@H](N)C(=O)O` [L-threonine]: the “Activity of the present enzyme on the substrate (in words)” value in assay [1] (standard assay conditions) is given as “exhibited the activity for only L-threonine”. Further, the “Relative activity (%) CnTDH” value in assay [1] (setting [9]) was found to be 100%. Also, the “Relative activity (%) CyTDH” value in assay [4] was 100%. Further, the “Relative activity (%) CsTDH” value in assay [2] is 100%. Moreover, the “Relative activity (%) EcTDH” value in assay [3] (setting [10]) is given as 100.0%. Moreover, the “Relative activity (%) StTDH” value in [7] is 100%. Moreover, in [5] (setting [10]), the “Relative activity (%) PfTDH” value is 100%. In [8], the “Relative activity (%) AgTDH” value is 100%. Moreover, on TkTDH, the “Relative activity (%) TkTDH” value is recorded as 100%. In [6], the “Relative activity (%) GdTDH” value is recorded as 100%.

With `C[C@H](N)C(=O)O` [L-alanine], in [1] (setting [9]), the “Relative activity (%) CnTDH” value is on record as 0%. Moreover, in assay [4], the “Relative activity (%) CyTDH” value was 0%. Besides, the “Relative activity (%) CsTDH” value in assay [2] was 0%. Also, in assay [5] (setting [10]), the “Relative activity (%) PfTDH” value was 0%.

As to `N[C@@H](CC(=O)O)C(=O)O` [L-aspartic acid], the “Relative activity (%) CnTDH” value in assay [1] (setting [9]) is 0%. In assay [4], the “Relative activity (%) CyTDH” value is on record as 0%. Besides, in assay [2], the “Relative activity (%) CsTDH” value was 0%. Besides, the “Relative activity (%) PfTDH” value in assay [5] (setting [10]) was 0%.

As to `N[C@@H](Cc1ccc(O)cc1)C(=O)O` [L-tyrosine], in assay [1] (setting [9]), the “Relative activity (%) CnTDH” value turned out to be 0%. In assay [4], the “Relative activity (%) CyTDH” value was 0%. Moreover, the “Relative activity (%) CsTDH” value in assay [2] is 0%. For the same molecule, the “Relative activity (%) PfTDH” value in [5] (setting [10]) is 0%.

As to `NCC(=O)O` [Glycine], the “Relative activity (%) CnTDH” value in [1] (setting [9]) was determined as 0%. Moreover, the “Relative activity (%) CyTDH” value in assay [4] was 0%. Besides, the “Relative activity (%) CsTDH” value in assay [2] is listed as 0%. For the same molecule, in [5], the “Relative activity (%) PfTDH” value was 0%.
